Data on three molecules can be found in patent US4282215A, “Analgesic mixture of nalbuphine and acetylsalicylic acid, derivative or salt thereof” (E. I. Du Pont de Nemours and Company, priority 1980, dated 1981).

The subject of assay [1] is phenyl-p-benzoquinone induced writhing in mice. Put plainly: mouse antiphenylquinone writhing test at 20 minutes, oral nalbuphine.HCl / aspirin suspension (Method 1). The format is in vivo, mouse (Male CF1). The method, then:
(§1) Male CF1 mice obtained from Charles River Breeding Laboratories, fasted for 16-22 hours, and weighing 18-22 g at the time of testing are used throughout. All mice are dosed sequentially by the oral route with suspensions of acetylsalicylic acid and/or of nalbuphine solutions (Method 1) or of calcium acetylsalicylate (calcium aspirin) and/or of nalbuphine solutions (Method 2). In each case the aspirin component is calculated as the equivalent free acid content, and nalbuphine is calculated as the hydrochloride salt. A dosing volume of 10 ml/kg is used for each sequential solution or suspension. All doses are coded and the test is performed under a code not known to the observer.
A stock suspension of aspirin is prepared by mixing 2.016 gm aspirin with 40 ml of an aqueous vehicle containing 2% by volume of Tween 80®, a pharmacological dispersant manufactured by Fisher Scientific Company and containing 100% polysorbate 80, and 1% by weight of Methocel® MC powder, a pharmacological suspending agent manufactured by DOW Chemical Company and containing 100% methylcellulose, in distilled water. The mixture is sonicated at 150 watts for 10-15 seconds with an ultrasound system, then shaken for 1 hour at 280 oscillations/minute with 15-20 gm of glass beads. The resultant suspension contains 50.4 mg/ml of aspirin; all dosing suspensions are prepared by dilution of the stock suspension with the Methocel®/Tween 80® vehicle; the vehicle control is Methocel®/Tween 80®. All suspensions are used within two hours of preparation, then discarded.
Stock solutions of nalbuphine.HCl are prepared by dissolving dry nalbuphine hydrochloride powder with distilled water. All dosing solutions are prepared by dilution of the stock solutions with distilled water; the vehicle control is distilled water.
(§2) A standard procedure for detecting and comparing the analgetic activity of different classes of analgesic drugs for which there is a good correlation with human analgetic activity is the prevention of phenyl-p-benzoquinone induced writhing in mice [H. Blumberg et al., Proc. Soc. Exp. Biol. Med., 118, 763-766 (1965)].
(§3) Mice, intubated with various doses of nalbuphine.HCl, aspirin suspensions (Method 1), calcium aspirin solution (Method 2), or immediately sequential doses of nalbuphine.HCl and of the aspirin preparations as defined further, or of the respective vehicles, are injected intraperitoneally with a standard challenge dose of phenyl-p-benzoquinone 5 min. prior to a designated observation period. The phenyl-p-benzoquinone is prepared as a 0.1 mg/ml solution in 5% by volume of ethanol in water; the writhing dose is 1.25 mg/kg injected at a volume of 0.25 ml/20 g. For scoring purposes a "writhe" is indicated by whole body stretching or contraction of the abdomen during a 10 min. observation period beginning 5 min. after receiving the phenyl-p-benzoquinone dose. Each mouse is used only once, then discarded.
(§4) All ED50 values and their 95% confidence limits are determined numerically by the methods of Thompson [W. F. Thompson, Bacteriological Rev., 11, 115-145 (1947)], Litchfield and Wilcoxon [J. T. Litchfield, Jr. and F. Wilcoxon, J. Pharm. Exp. Ther., 96, 99-113 (1949)], or Finney [D. J. Finney, "Probit Analysis," third edition, Cambridge University Press, Cambridge, England, (1971)].
Rev., 9, 237-242 (1957)] in FIG. 1. […] In the isobolographic figures, the analgetic effects of nalbuphine alone are presented on the Y axis and of aspirin alone (or calcium aspirin, expressed as aspirin equivalent dosages) on the X axis. The dotted lines radiating from the origin represent the fixed dosage ratios of nalbuphine.HCl:aspirin in the ranges of 1:2.44 to 1:60.9 and 1:1.76 to 1:61.7 for FIGS. 1 and 2, respectively. […] The arrows extending above and below each ED50 point represent the 95% confidence limits of the ED50's. […]
A general note: Writhing tests count abdominal constrictions after an irritant is injected.

Assay [2] shares this test system. Put plainly: mouse antiphenylquinone writhing test at 40 minutes, oral nalbuphine.HCl / calcium aspirin (Method 2). The assay is classed as in vivo, mouse (Male CF1). The method, then: as §1
A stock solution of calcium aspirin is prepared by mixing 4.032 gm of aspirin and 1.120 gm of precipitated calcium carbonate with 50 ml of distilled water at 40°-50° C. until the solids are completely dissolved, then diluting to 60 ml with distilled water at ambient temperature to obtain a solution containing 67.2 mg/ml of aspirin equivalent. All dosing solutions are prepared by dilution of the stock solution with distilled water; the vehicle control is distilled water. All solutions are used within two hours of preparation, then discarded.
Stock solutions of nalbuphine.HCl are prepared as described for Method 1.
as §2, §3, §4
Rev., 9, 237-242 (1957)] in FIG. 1. […] In the isobolographic figures, the analgetic effects of nalbuphine alone are presented on the Y axis and of aspirin alone (or calcium aspirin, expressed as aspirin equivalent dosages) on the X axis. The dotted lines radiating from the origin represent the fixed dosage ratios of nalbuphine.HCl:aspirin in the ranges of 1:2.44 to 1:60.9 and 1:1.76 to 1:61.7 for FIGS. 1 and 2, respectively. […] The arrows extending above and below each ED50 point represent the 95% confidence limits of the ED50's.
The solid line connecting the ED50 dosages of nalbuphine (alone) and aspirin (alone) represents the "ED50 addition line," which indicates the expected location of the ED50's for nalbuphine and aspirin combinations if simple additivity were to describe their combined effects. The 95% confidence range for the ED50 addition line is shown by the area between the broken lines above and below the ED50 addition line. […]

Structures can show the parent of a compound that is named as a salt.

For orientation: ED50 means the dose that gives a 50% effect, or the effect in half of the subjects.

With `CC(=O)Oc1ccccc1C(=O)O` [Aspirin, acetylsalicylic acid], the 50% effective dose (ED50) at 20 MIN., Aspirin (component) in assay [1] (N = 24 mice/dose) is reported as 206 mg/kg. The “% MICE BLOCKED” value is recorded as 8.3% in assay [1] (nalbuphine.HCl 0, aspirin 63 mg/kg); 37.5% in assay [1] (nalbuphine.HCl 0, aspirin 126 mg/kg); 58.3% in assay [1] (nalbuphine.HCl 0, aspirin 252 mg/kg); 79.2% in assay [1] (nalbuphine.HCl 0, aspirin 504 mg/kg).

With `Oc1ccc2c3c1O[C@H]1[C@@H](O)CC[C@@]4(O)[C@@H](C2)N(CC2CCC2)CC[C@]314` [Nalbuphine . HCl, (-)17-(cyclobutylmethyl)-4,5α-epoxymorphinan-3,6α,14-triol], in assay [2] (N = 54 mice/dose), the “ED50 at 40 MIN., Nalbuphine . HCl (component)” value is recorded as 42.6 mg/kg. The “% MICE BLOCKED” value in assay [2] (nalbuphine.HCl 5.45 mg/kg alone) came out at 13.0%; in assay [2] (nalbuphine.HCl 10.9 mg/kg, aspirin 0), 16.7%; in assay [2] (nalbuphine.HCl 21.8 mg/kg, aspirin 0) it was 27.8%; in assay [2] (nalbuphine.HCl 43.6 mg/kg, aspirin 0), 50.0%; in assay [2] (nalbuphine.HCl 87.2 mg/kg, aspirin 0) it was 74.1%; in assay [1] (nalbuphine.HCl 5.18 mg/kg, aspirin 0) it was 0%. Moreover, the “% MICE BLOCKED” value in assay [1] (nalbuphine.HCl 10.4 mg/kg, aspirin 0) is listed as 16.7%; in assay [1] (nalbuphine.HCl 20.7 mg/kg, aspirin 0) it was 50.0%; in assay [1] (nalbuphine.HCl 41.4 mg/kg, aspirin 0), 62.5%. For the same molecule, the “ED50 at 20 MIN., Nalbuphine . HCl (component)” value in assay [1] (N = 24 mice/dose) is listed as 26.1 mg/kg.

As to `CC(=O)Oc1ccccc1C(=O)O` [calcium aspirin, calcium acetylsalicylate], in assay [2] (N = 54 mice/dose), the “ED50 at 40 MIN., Aspirin (component; calcium aspirin as equivalent free aspirin)” value is given as 171 mg/kg. Besides, the “% MICE BLOCKED” value came to 7.4% in assay [2] (nalbuphine.HCl 0, aspirin equiv. 48 mg/kg); 13.0% in assay [2] (nalbuphine.HCl 0, aspirin equiv. 96 mg/kg); 63.0% in assay [2] (nalbuphine.HCl 0, aspirin equiv. 192 mg/kg); 87.0% in assay [2] (nalbuphine.HCl 0, aspirin equiv. 384 mg/kg).
